The values that follow come from patent US20050069544A1, “Pharmaceutical composition and a method of treatment” (priority 1998, published 2005).

What all share (assay type): cell-based, human
In assay [1] the test system is T-cells from AIHA patients. Description: Cell proliferation assay of PBMC/T-cells from autoimmune haemolytic anaemia patients. To be noted: for proliferative T-cell response to RhD peptides: AIHA patients, FIG. 17A; for proliferative T-cell response to ce peptides: RhD-negative AIHA subjects, FIG. 17B. The procedure:
(§1) PBMC were cultured in 100 μl volumes in microtitre plates at a concentration of 1.25×10^6 cells/ml in an Alpha Modification of Eagle's Medium (ICN Flow, Bucks UK) supplemented with 5% autologous serum, 4 mM L-Glutamine (Gibco, Paisley, UK), 100 U/ml sodium benzylpenicillin G (Sigma), 100 μg/ml streptomycin sulphate (Sigma), 5×10^−5M 2-mercaptoethanol (Sigma) and 20 mM HEPES pH7,2 (Sigma). All plates were incubated at 37° C. in a humidified atmosphere of 5% CO2/95% air. The cell proliferation in cultures was estimated from the incorporation of ^3H-Thymidine in triplicate wells 5 days after stimulation with antigen as described previously. Proliferation results are presented either as the mean CPM+/−SD of the triplicate samples, or as a stimulation index (SI), expressing the ratio of mean CPM in stimulated versus unstimulated control cultures. An S1>3 with CPM>1000 is interpreted as representing a positive response.
The experiments mentioned in Example 1.1 were repeated using blood from subjects suffering from autoimmune haemolytic anaemia.
These experiments can be carried out using other rhesus proteins, such as RhcE, Rhce, RhCe or RhCE protein. T-cells from RhD-negative subjects suffering AIHA were tested with the panel of ce peptides (Table 3).

The subject of assay [2] is PBMC from RhD alloimmunised donors. In words: Cell proliferation assay (3H-thymidine) of PBMC from RhD alloimmunised donors stimulated with RhD peptides. To be noted: peptide 20 μg/ml, 5 days. The procedure:
Five complete panels of 68 15-mer peptides, with 5 or 10 amino acid overlaps, were synthesized (Multiple Peptide Service, Cambridge Research Biochemicals, Cheshire, UK and Dept. Of Biochemistry, University of Bristol, UK), corresponding to the sequences of the 30 kD Rh proteins associated with expression of the RhD or RhcE/ce/Ce/CE blood group antigens respectively (Tables 1 to 5). An additional three peptide sequences is added to the panel of RhD peptides to account for the Ile to Met substitution described earlier (numbered from 69 to 71). The amino acid sequences for each of these proteins were deduced from cDNA analyses (FIG. 1). In order to ensure purity, each panel was synthesized by fluorenylmethoxycarbonyl chemistry on resin using a base-labile linker, rather than by conventional pin technology, and randomly selected peptides were screened for purity by HPLC and amino acid analysis.
Peripheral blood mononuclear cells (PBMC) from donors or patients were separated from fresh blood samples using Ficoll-Hypaque. The donors and patients had become alloimmunised with RhD-positive blood either through pregnancy, a blood transfusion or through immunization with the relevant blood.
as §1

In assay [3] the test system is PBMC from RhD-alloimmunised donors. Description: celELISA of cytokine production (IL-10, TGF-β1) by PBMC from RhD alloimmunised donors. As to conditions: for IL-10 production by PBMC: FIG. 3 and FIG. 10; for TGF-β1 production by PBMC: FIG. 3 and FIG. 11. The procedure:
Cultured T-cells are stimulated with each of the epitopes given in Table 1 and after 5 days the responding cells were transferred to flat-bottomed microtitre plates (96-well Nunc-Immuno Maxisorp) coated with […] per well of monoclonal anti-cytokine capture antibody diluted in 0.05M alkaline carbonate coating buffer pH 9.6. Unbound capture antibody was removed by two washes with HBSS and non-specific binding potential blocked by incubation with 200 μl per well of phosphate buffered saline, pH 7.4 (PBS containing 3% BSA).
Five days after stimulation, lymphocyte cultures were mixed to resuspend the cells and duplicate 100 μl aliquots were transferred into wells coated with the respective capture antibody specific for IFN-γ, IL-10 or TGF-β. The plates coated with capture antibodies and layered by lymphocytes were then incubated for a further 24 hours at 37° C. in a humidified atmosphere of 5% CO2 and 95% air. After this incubation the PBMC were removed by four washes with 0.2% Tween/PBS. One hundred microlitre aliquots of the appropriate biotinylated monoclonal detection antibody in 0.2% BSA/PBS were then added to the wells and incubated at room temperature for 45 minutes.
After six washes with 0.5% Tween/PBS, 100 μl of 1:100,000 ExtrAvidin-alkaline phosphatase conjugate (Sigma) was then added to each of the wells and incubated at room temperature for 30 minutes. The ExtrAvidin conjugate was removed by eight washes with 0.2% Tween/PBS, and the plates developed using 100 μl per well of p-nitrophenyl phosphate (Sigma) 1.0 mg/ml in 0.05M carbonate alkaline buffer pH9.6. The absorbance at 405 nm was then measured using a Multiscan plate reader (Labsystems Basingstoke UK).
Cytokine secretion was measured by interpolation from a standard curve generated by incubating duplicate wells with doubling dilutions of recombinant human IFN-γ or IL-10 or TGF-β (Pharmingen). The standard curves were modelled by a smoothed cubic spline function applied to the absorbance reading and the cytokine concentrations after a quasilogarithmic transformation, where: quasiloge(z)=loge[z+{square root}[z^2+1]).
Using celELISA technique, the 68 RhD peptide panel was screened for the ability to induce IL-10 and TGF-β production for PBMC from a total of 19 samples from 12 different alloimmune donors. PMBC from 10 out of the 12 RhD-alloimmunised donors could produce IL-10 to at least one of the RhD peptides on at least one occasion, with a total of 194 significant IL-10 responses to the RhD peptides between all the donors. The RhD peptides that induced significant TGF-β or IL-10 and proliferative responses from PBMC in all the samples screened are summarised in FIGS. 10 and 11.

“Also recorded” adds a separate entry of the source.

Consider “AALILLFYFFTHYDA (Residue 22- 36 RhD; listed as Homo sapiens) [compound 3]”, for which, in assay [1], the “proliferative T-cell response to RhD peptides” value is “exhibited a proliferative response”.

In the case of “ATIPSLSAMLGALFL (Residue 202-216 RhD; listed as Homo sapiens) [compound 33]”, in assay [1], the “proliferative T-cell response to RhD peptides” value is on record as “exhibited a proliferative response”. On to “CLPLWALTLEAALIL (Residues 12-26 RhD; listed as Homo sapiens) [peptide 2]”, for which the “proliferative T-cell response to RhD peptides” value was “most commonly targeted” in assay [2] and “exhibited a proliferative response” in assay [1]. As for “FSLLGLLGEIIYIVL (Residue 332-346 RhD; listed as Homo sapiens) [compound 56]”, the “proliferative T-cell response to RhD peptides” value in assay [2] was “most commonly targeted”. For the same sequence, the “IL-10 production by PBMC” value in assay [3] is “commonly induce the production of IL-10”. As for “FSLLGLLGEITYIVL (Residue 332-346 Rhce; listed as Homo sapiens) [compound 195]”, the “proliferative T-cell response to ce peptides” value in assay [1] is listed as “exhibited a proliferative response”. With “GKVNLAQLVVMVLVE (Residue 132-146 RhD; listed as Homo sapiens) [compound 20]”, the “proliferative T-cell response to RhD peptides” value in assay [1] is “exhibited a proliferative response”. Turning to “GLISVGGAKYLPGCC (Residue 302-316 RhD; listed as Homo sapiens) [compound 50]”, the “proliferative T-cell response to RhD peptides” value in assay [1] was “exhibited a proliferative response”. Same read-out and setting: next, “GTSCHLIPSPWLAMV (Residue 282-296 RhD; listed as Homo sapiens) [compound 47]”: “exhibited a proliferative response”.

For the sequence “GTSCHLIPSPWLAMV (Residue 282-296 Rhce; listed as Homo sapiens) [compound 186]”, the “proliferative T-cell response to ce peptides” value in assay [1] is “exhibited a proliferative response”. As to “HSWSSVAFNLFMLAL (Residue 72-86 RhD; listed as Homo sapiens) [compound 10]”, the “proliferative T-cell response to RhD peptides” value in assay [2] is listed as “most commonly targeted”. Take “KGLVASYQVGQDLTV (Residue 42-56 Rhce; listed as Homo sapiens) [compound 144]”: the “proliferative T-cell response to ce peptides” value in assay [1] is recorded as “exhibited a proliferative response”.

Consider “LAIVIALTSGLLTGL (Residue 372-386 RhD; listed as Homo sapiens) [compound 62]”, for which the “proliferative T-cell response to RhD peptides” value in assay [1] is listed as “exhibited a proliferative response”.

Take “LGFLTSSFRRHSWSS (Residue 62-76 RhD; listed as Homo sapiens) [compound 8]”: the “TGF-β1 production by PBMC” value in assay [3] is “commonly induce the production of TGF-β1”.

Turning to “LGLVAGLISVGGAKY (Residue 297-311 RhD; listed as Homo sapiens) [compound 49]”, in assay [3], the “IL-10 production by PBMC” value is recorded as “commonly induce the production of IL-10; also recorded: induce IL-10 production in the absence of a proliferative response or the production of IFN-γ or IL-4”.

As to “LLTGLLLNLKIWKAP (Residue 382-396 RhD; listed as Homo sapiens) [compound 63]”, in assay [2], the “proliferative T-cell response to RhD peptides” value was “most commonly targeted”. Same read-out and setting: in the case of “SAVLAGGVAVGTSCH (Residue 272-286 RhD; listed as Homo sapiens) [peptide 46]” it was “most commonly targeted”.

Consider “THYDASLEDQKGLVA (Residues 32-46 Rhce; listed as Homo sapiens) [compound 143]”, for which the “proliferative T-cell response to ce peptides” value in assay [1] is listed as “exhibited a proliferative response”. On the same count and under the same terms, in the case of “TVAWCLPKPLPKGTE (Residue 182-196 Rhce; listed as Homo sapiens) [compound 168]” it was “exhibited a proliferative response”. Turning to “VTALGNLRMVISNIF (Residue 147 - 161 RhD; listed as Homo sapiens) [compound 22]”, in assay [2], the “proliferative T-cell response to RhD peptides” value was “most commonly targeted”. Take “WLAMVLGLVAGLISV (Residue 292-306 RhD; listed as Homo sapiens) [peptide 48]”: the “TGF-β1 production by PBMC” value in assay [3] was “commonly induce the production of TGF-β1; also recorded: induces TGF-β1 production in the absence of a proliferative response or the production of IFN-γ or IL-4”.
